Data from US20250066282A1, “NOVEL ANALOGS OF VALPROIC ACID AND METHODS OF MEDICAL TREATMENT USING THE SAME” (Cereno Scientific AB, priority 2021, published 2025).

Assays:
C57BL/6 wild type mice [1] = test: Cremaster laser-induced thrombosis assay (platelet accumulation, fibrin formation); format: in vivo; conditions: cremaster arteriole laser-induced injury
Protocol: The effects of the compounds of the invention and VPA on the ability and timing of clot formation were determined. Specifically, platelet accumulation and fibrin formation in the cremaster artery in forming a non-occlusive clot were measured following laser-induced insult to the vessel in 10-12 week-old mice (C57BL/6 wild type mice purchased from Jackson Laboratories).
Valproic acid (VPA) was purchased from Sigma-Aldrich as a powder and resuspended in 0.9% Sodium Chloride (saline) to prepare a final stock solution of each compound.
To assess platelet accumulation and fibrin formation, a Zeiss Axio Examiner Z1 fluorescent multichannel intravital microscope was used. The microscope was equipped with: (1) a solid laser launch system (LaserStack; Ablate! Photoablation system, intelligent Imaging innovations), (2) a high-speed sCMOS camera, and (3) a laser ablation system (intelligent Imaging innovations, Denver, CO, USA). SlideBook 6.0 digital microscopy software for image recording and analysis was also used. An anti-platelet antibody, and an anti-fibrin antibody, both commercially available, were used for imaging purposes.
The dynamic accumulation of platelets and fibrin within thrombi at the site of the injury in vivo was evaluated in cremaster arteriole in response to laser-induced injury under intravital microscopy. Adult male mice (10-12 weeks old) were treated with 30 mg/kg and 100 mg/kg for 5 days prior to injury were anesthetized by an intraperitoneal injection of ketamine/xylazine (100 and 10 mg/kg, respectively) and the jugular vein was cannulated. A tracheal tube was inserted to facilitate breathing. The cremaster arteriole was surgically prepared and superfused with preheated bicarbonate saline buffer throughout the experiment.
DyLight 488-conjugated rat anti-mouse platelet GP1bβ antibody (0.1 μg/g; EMFRET Analytics) and Alexa Fluor 647-conjugated anti-fibrin (0.3 μg/g) were administered intravenously via a jugular vein cannula prior to vascular injury. Microcirculation was monitored and recorded under multichannel intravital microscopy.
Multiple independent thrombi (6-8 thrombi in each mouse) were induced in the arterioles (30-50 μm diameter) in each mouse by a laser ablation system. Images of thrombus formation at the site of injured arterioles were acquired in realtime under 63× water-immersion objective with a Zeiss Axio Examiner Z1 fluorescent microscope equipped with solid laser launch system (LaserStack; Intelligent Imaging Innovations) and high-speed sCMOS camera. All captured images were analyzed for the change of fluorescent intensity over the course of thrombus formation after subtracting fluorescent background using the Slidebook program. […]

[2] = reported by Rettie, J. Biol. Chem. 263(27):13733-13738 (1988); cited from earlier work
C57BL/6 wild type mice [3] = test: Excessive bleeding assay (tail bleeding time); format: in vivo; conditions: tail resection 5 mm, 100 mg/kg IP once a day for five days, compared to control (FIG. 1)
Protocol: To determine the risks of excessive bleeding associated with the compounds of the present invention, the last 5 mm of the tail of mice was resected to identify the amount of time necessary for the vessel to properly clot and prevent excessive loss of blood.
10-12 weeks old C57BL/6 wild type mice were purchased from Jackson Laboratories for these experiments. Various compounds were administered to the mice via IP injection once a day at a dose of 100 mg/kg of compound for five days prior to resection.
Mice were sedated with 250 μL of ketamine solution (Ketamine (100 μL)/xylazine (50 μL) in 850 μl. Saline solution). The mice were then placed face down on a heat pad on top of the bead bath to enable the tail to be pulled into a saline-filled tube. 5 mm of the tail as cut with a scalpel and the tail was placed in a saline-filled tube and a timer started. The timer was stopped when the bleeding stopped, but the possibility of re-bleeds was observed from 10 minutes after initial bleeding stopped. If the mouse bleeds continuously for 10 minutes, the experiment was halted and the mouse was euthanized. One-way ANOVA with Dunnett's correction for multiple comparison test was performed to determine statistical significance of bleeding times.

[4] = 100 mg/kg IP for 5 days, versus VPA (FIG. 4)

SMILES | platelet accumulation (C57BL/6 wild type mice [1]; [4]) | formation of the 4-ene-VPA metabolite compared to VPA [2] | bleeding time (C57BL/6 wild type mice [3]) | other results
[2H]C([2H])C([2H])([2H])CC([2H])(CC([2H])([2H])C([2H])[2H])C(=O)O [Compound Ib, 2-(Propyl-2,2,3,3-d4)pentanoic-2,4,4,5,5-d5 acid] | consistent decrease in platelet accumulation over VPA |  |  | 
[2H]C([2H])([2H])CCC(CCC([2H])([2H])[2H])C(=O)O [5,5,5,5′,5′,5′D6VPA] |  | increased amount of the 4-ene-VPA metabolite |  | 
CCCC(CCC)C(=O)O [VPA, Valproic acid] |  |  | significant increase in bleeding time | 
[2H]C([2H])C([2H])([2H])CC(CC([2H])([2H])C([2H])[2H])C(=O)O [Compound Ia, 2-[(2,2,3,3-2H4)propyl](4,4,5,5-2H4)pentanoic acid] | consistent decrease in platelet accumulation over VPA |  | best safety profile in terms of risk of excess bleeding | platelet accumulation (C57BL/6 wild type mice [1]; 30 mg/kg IP for 5 days, versus VPA (FIG. 2)): consistent decrease; fibrin formation (C57BL/6 wild type mice [1]; 30 mg/kg IP for 5 days, versus VPA (FIG. 3)): consistent decrease
[2H]C([2H])(C)CC(CC([2H])([2H])C)C(=O)O [4,4,4′,4′-D4VPA] |  | considerably less formation of the 4-ene metabolite |  | 
